Reference: ChEMBL document CHEMBL1201862, “PubChem BioAssay data set” (2004)
The source made the active and inactive calls.

Legend:
Aminopeptidase N = molecular target: T1, Aminopeptidase N (Plasmodium falciparum FcB1/Columbia, UniProt O96935); experiment: P. falciparum M1AAP inhibitors, biochemical, fluorogenic H-Leu-NHMec substrate, 1536-well (AID 1445); parameters: species or system Plasmodium falciparum 3D7, 3D7
T1 sequence (O96935 whole entry): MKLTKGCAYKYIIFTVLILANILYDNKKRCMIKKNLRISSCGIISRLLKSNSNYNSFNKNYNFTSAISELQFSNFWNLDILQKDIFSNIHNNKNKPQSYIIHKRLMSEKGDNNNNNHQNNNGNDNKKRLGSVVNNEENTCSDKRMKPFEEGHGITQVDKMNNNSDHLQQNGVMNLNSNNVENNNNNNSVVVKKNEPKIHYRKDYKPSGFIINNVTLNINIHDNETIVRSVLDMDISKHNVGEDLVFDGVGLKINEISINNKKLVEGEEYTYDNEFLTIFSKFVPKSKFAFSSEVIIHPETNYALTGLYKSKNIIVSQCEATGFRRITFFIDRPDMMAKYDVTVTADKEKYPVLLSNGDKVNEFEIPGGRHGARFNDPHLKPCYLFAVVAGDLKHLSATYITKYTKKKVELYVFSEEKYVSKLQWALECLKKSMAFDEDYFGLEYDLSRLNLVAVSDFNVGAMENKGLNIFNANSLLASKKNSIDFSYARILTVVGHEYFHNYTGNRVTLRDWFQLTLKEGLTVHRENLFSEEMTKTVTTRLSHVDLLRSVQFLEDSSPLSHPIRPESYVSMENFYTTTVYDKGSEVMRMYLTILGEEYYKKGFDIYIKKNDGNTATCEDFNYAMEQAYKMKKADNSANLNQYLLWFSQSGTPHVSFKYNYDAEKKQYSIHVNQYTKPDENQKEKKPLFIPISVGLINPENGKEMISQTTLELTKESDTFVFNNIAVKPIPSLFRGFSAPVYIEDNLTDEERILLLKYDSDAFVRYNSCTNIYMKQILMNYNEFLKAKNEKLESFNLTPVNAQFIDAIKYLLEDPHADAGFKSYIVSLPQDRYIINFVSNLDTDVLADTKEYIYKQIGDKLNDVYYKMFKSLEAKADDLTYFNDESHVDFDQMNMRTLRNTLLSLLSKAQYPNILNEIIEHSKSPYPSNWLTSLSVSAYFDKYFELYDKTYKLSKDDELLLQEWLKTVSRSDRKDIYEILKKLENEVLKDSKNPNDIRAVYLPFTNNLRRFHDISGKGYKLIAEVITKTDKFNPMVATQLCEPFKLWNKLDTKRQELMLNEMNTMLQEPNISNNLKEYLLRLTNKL

[1] = molecular target: T2, Tyrosyl-DNA phosphodiesterase 2 (Homo sapiens, UniProt O95551); experiment: human TDP2 enzyme inhibitors, dose response, biochemical, epi absorbance, IC50 (AID 743297)
T2 sequence (O95551 whole entry): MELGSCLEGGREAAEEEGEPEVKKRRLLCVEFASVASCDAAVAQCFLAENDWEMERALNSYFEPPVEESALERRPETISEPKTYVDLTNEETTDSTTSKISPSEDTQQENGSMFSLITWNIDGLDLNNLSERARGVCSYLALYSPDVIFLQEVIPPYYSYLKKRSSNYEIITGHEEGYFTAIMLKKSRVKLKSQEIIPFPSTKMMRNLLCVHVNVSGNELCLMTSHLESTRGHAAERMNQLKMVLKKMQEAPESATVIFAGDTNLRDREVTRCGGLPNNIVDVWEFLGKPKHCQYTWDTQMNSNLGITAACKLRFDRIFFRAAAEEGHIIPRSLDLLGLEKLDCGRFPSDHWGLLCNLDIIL

[2] = molecular target: T3, Oxysterols receptor LXR-beta (Homo sapiens, UniProt P55055); type: functional, cell-based;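 note: agonist activity at LXR measured by a cell-based luminescence readout across a dose range, run as a counterscreen for daf-12 agonists; HEK293 cells with Gal4-LXR fusion and GAL4-driven luciferase reporter; potency for activation of Gal4-LXR reporter so compounds are agonists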
T3 sequence (P55055 whole entry): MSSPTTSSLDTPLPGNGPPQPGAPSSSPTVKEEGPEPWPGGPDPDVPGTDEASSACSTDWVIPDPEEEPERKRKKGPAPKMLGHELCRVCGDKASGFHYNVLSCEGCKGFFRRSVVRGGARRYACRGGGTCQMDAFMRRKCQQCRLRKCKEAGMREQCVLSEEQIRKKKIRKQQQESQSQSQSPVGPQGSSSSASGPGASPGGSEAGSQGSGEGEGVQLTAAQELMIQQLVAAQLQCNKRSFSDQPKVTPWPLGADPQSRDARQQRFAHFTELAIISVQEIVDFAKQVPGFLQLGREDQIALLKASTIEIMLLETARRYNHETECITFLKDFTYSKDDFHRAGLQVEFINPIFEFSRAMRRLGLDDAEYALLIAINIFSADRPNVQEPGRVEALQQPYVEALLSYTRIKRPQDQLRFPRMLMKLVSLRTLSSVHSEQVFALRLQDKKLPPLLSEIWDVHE

H9c2 = experiment: cells; type: functional, cell-based; details: Rattus norvegicus, H9c2, Myocardium
[3] = Shn3 3'UTR reporter inhibitors, dose response, cell-based, Clone20 osteoblasts, firefly luciferase, cherry-picked (AID 624132); type: functional;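 note: firefly luciferase luminescence from reporter carrying the Shn3 3'UTR in osteoblasts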
[4] = HepG2 cell cytotoxicity, dose response, cytotoxicity control for Shn3 inhibitor project, CellTiter-Glo, cherry-picked (AID 624134); type: functional, cell-based
[5] = molecular target: Disintegrin and metalloproteinase domain-containing protein 17 (Homo sapiens, UniProt P78536); experiment: exosite inhibitors of ADAM17, dose response, biochemical (AID 743260)
Chain of Disintegrin and metalloproteinase domain-containing protein 17 (P78536 whole entry, the tested form may be a part): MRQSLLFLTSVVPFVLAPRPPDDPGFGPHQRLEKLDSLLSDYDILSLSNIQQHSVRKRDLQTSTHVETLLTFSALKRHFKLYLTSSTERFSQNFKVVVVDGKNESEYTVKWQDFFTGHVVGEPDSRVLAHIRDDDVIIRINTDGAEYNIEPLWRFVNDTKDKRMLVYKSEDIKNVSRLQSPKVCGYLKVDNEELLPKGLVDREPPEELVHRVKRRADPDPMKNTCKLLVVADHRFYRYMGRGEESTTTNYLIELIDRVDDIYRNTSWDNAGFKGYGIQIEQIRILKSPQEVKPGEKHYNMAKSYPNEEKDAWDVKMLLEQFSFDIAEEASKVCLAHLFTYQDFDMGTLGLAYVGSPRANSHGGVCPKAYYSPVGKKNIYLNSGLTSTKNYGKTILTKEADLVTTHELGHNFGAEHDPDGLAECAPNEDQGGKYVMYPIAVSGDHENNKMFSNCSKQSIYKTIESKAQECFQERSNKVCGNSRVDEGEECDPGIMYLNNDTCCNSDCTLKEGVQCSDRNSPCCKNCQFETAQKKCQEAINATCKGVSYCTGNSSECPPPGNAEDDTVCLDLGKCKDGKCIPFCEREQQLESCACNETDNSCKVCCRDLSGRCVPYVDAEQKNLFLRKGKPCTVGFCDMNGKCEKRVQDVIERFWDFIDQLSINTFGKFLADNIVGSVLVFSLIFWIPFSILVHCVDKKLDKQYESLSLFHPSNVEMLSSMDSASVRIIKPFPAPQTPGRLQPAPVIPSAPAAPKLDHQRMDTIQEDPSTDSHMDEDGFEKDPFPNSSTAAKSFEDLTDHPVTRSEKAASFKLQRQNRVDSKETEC

[6] = ADAM10 protease inhibitors, dose response, selectivity assay for ADAM17 exosite inhibitor project, biochemical, FRET peptide substrate, recombinant human ADAM10 (AID 743259);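 note: ADAM10 enzyme cleaving a FRET peptide substrate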
[7] = inhibitors of HIV Env-driven cell fusion, dose response, cherry-pick (AID 652057); type: functional, cell-based
[8] = CEM21 lymphoblast cell cytotoxicity, dose response, cytotoxicity control for viral fusion inhibitor project, CellTiter-Glo luminescence, cherry-picked (AID 652042); type: functional, cell-based;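 note: potency for signal decrease meaning cytotoxicity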
[9] = ZM109 Env clade C HIV-1 fusion inhibitors, dose response, HeLa effector, CEM target cells, luciferase, cherry-pick (AID 652058); type: functional, cell-based
[10] = off-target signal loss in HeLa-CEM21 co-culture – HeLa F-luc CTL cells, cherry-picked, counter-screen for HIV-1 Env fusion inhibitor project, dose response (AID 652040); type: functional, cell-based;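 note: potency for signal decrease marking cytotoxic or nonspecific inhibition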
[11] = inhibitors of clade B AD8 Env fusion, dose response, cell-based, cherry-pick (AID 652062); type: functional;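 note: luciferase signal from cell-cell fusion driven by HIV-1 clade B AD8 Env; potency is for inhibitors of fusion seen as a drop in luminescence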
BJ [12] = experiment: cytotoxicity toward BJ-TERT fibroblasts, dose response, cell-based, RAS-independent, luminescence (AID 1933); type: functional; details: Homo sapiens
BJ [13] = experiment: cells; type: functional, cell-based; details: Homo sapiens
[14] = molecular target: Luciferin 4-monooxygenase (Photinus pyralis, UniProt P08659); experiment: firefly luciferase enzyme inhibitors, dose response, biochemical, luminescence (AID 1891)
Chain of Luciferin 4-monooxygenase (P08659 whole entry): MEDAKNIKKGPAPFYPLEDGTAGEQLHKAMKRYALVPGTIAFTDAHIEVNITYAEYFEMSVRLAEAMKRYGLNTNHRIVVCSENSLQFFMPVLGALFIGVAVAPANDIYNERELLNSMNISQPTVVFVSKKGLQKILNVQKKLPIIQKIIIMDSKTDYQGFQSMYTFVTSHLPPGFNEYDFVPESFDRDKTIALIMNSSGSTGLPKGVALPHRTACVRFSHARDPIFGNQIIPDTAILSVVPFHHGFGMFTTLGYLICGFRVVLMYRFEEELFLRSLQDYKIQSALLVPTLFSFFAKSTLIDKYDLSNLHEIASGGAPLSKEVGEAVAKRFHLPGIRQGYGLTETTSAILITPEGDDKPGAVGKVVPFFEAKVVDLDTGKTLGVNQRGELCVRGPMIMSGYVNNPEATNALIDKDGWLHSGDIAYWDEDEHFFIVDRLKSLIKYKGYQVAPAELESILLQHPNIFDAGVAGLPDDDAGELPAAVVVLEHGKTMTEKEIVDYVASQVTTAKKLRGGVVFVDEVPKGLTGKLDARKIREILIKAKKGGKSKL

[15] = Luminescence Cell-Based Dose Confirmation HTS to Identify Inhibitors of Platelet Dense Granule Release. [Related pubchem assays: 1663 (Primary HTS), 1678 (Summary of Project)]; type: functional
BJ [16] = experiment: cytotoxicity toward BJ-TERT-LT-ST fibroblasts, dose response, cell-based, RAS-independent, luminescence (AID 1935); type: functional; details: Homo sapiens;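 note: BJ fibroblasts immortalized with TERT plus LT and ST oncogenes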
[17] = cytotoxicity toward DRD oncogenic fibroblasts, dose response, cell-based, non-viral oncogenic, luminescence (AID 1934); type: functional; details: Homo sapiens
[18] = A549 cell cytotoxicity, dose response, cytotoxicity control, plate reader, cherry-pick, antagonist series (AID 743412); type: functional, cell-based
[19] = HepG2 cell cytotoxicity, dose response, cytotoxicity control, plate reader, cherry-pick, antagonist series (AID 743416); type: functional, cell-based
[20] = LGR2 antagonists, dose response, cell-based, HEK293, CRE-luciferase reporter, cherry pick, set 2 (AID 743343); type: functional;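 note: transfected cells were stimulated with diluted bursicon conditioned medium after compound addition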
[21] = MC4R antagonists, dose response, counter-screen for LGR2 antagonist project, cell-based, plate reader, cherry pick (AID 743444); type: functional;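 note: transfected HEK 293 cells stimulated with alpha-MSH peptide; potency of inhibitors of the alpha-MSH evoked signal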
[22] = HEK293 cell cytotoxicity, dose response, cytotoxicity control, plate reader, cherry-picked samples (AID 743446); type: functional, cell-based

## CCCCn1c(NS(=O)(=O)c2ccccc2)c(C(=O)OCC)c2nc3ccccc3nc21
Aminopeptidase N
  IC50: 74.4 µM (active)
[1]
  IC50: > 128 µM (inactive)

## Cc1nc2sc(-c3ccccc3)nn2c(=O)c1Br
[2]
  EC50: > 67.5 µM (inactive)

## COc1ccc(OC)c(NC(=O)COC(=O)c2c3c(nc4ccccc24)CCCC3)c1
H9c2
  IC50: > 79 µM (inactive)
[3]
  AC50: 8.67 µM (active)
[4]
  AC50: > 70 µM (inactive)
[5]
  IC50: > 69.5 µM (inactive)
[6]
  IC50: > 69.5 µM (inactive)

## CC(C)Oc1cc(O)c2c(=O)c(-c3ccc(O)cc3)coc2c1
[2]
  EC50: > 67.6 µM (inactive)

## Cc1cc(OCC(O)CNC(C)c2ccccc2)ccc1C(C)C (stereo not given)
[7]
  AC50: 2.75 µM (active)
[8]
  AC50: 13.3 µM (active)
[9]
  AC50: 1.85 µM (active)
[10]
  AC50: 3.99 µM (active)
[11]
  AC50: 7.78 µM (active)

## COc1ccc(-c2ccc(SC)nn2)cc1
BJ [12]
  EC50: 6.75 µM (active)
BJ [13]
  EC50: 6.55 µM (active)
[14]
  EC50: 1.1 µM (active)
[15]
  EC50: 1.98 µM (active)
BJ [16]
  EC50: 15.7 µM (active)
[17]
  EC50: 6.25 µM (active)
[18]
  AC50: 14.4 µM (active)
[19]
  AC50: 8.69 µM (active)
[20]
  AC50: 5.07 µM (active)
[21]
  AC50: 6.62 µM (active)
[22]
  AC50: 8.72 µM (active)
